Measurements published in paper PMC9320206, “Sanguinarine, identified as a natural alkaloid LSD1 inhibitor, suppresses lung cancer cell growth and migration” (Iranian Journal of Basic Medical Sciences, 2022).

Biological target: T1, Lysine-specific demethylase 1 (LSD1) (Homo sapiens, UniProt O60341)
T1 construct: gene KDM1A; recombinant LSD1 (pET-28b-LSD1, expressed in BL21(DE3))
Experiment: HRP/Amplex Red fluorescence demethylase assay with H3K4me2 peptide; no-enzyme counter-screen; […] dilution reversibility assay
Format: biochemical

C[n+]1cc2c3c(ccc2c2ccc4cc5c(cc4c21)OCO5)OCO3 [sanguinarine]
IC50: 400 nM
